Data taken from patent publication US4323602A, “Water repellent and preservative for wood products” (priority 1980, dated 1982).

System: Lenzites trabea (Madison strain 617)
Assay: NWMA Soil-Block Test (fungicide effectiveness, wood decay)
Conditions: 5.4 times the threshold concentration (NWMA)
Protocol: The product of Table 2, diluted with four parts water, was tested as a fungicide using a standard National Woodwork Manufacturers Association (NWMA) Soil-Block Test to determine and compare effectiveness with a Standard Solvent Based 5% Penta treating solution. This test method is used to determine the minimum amount of preservative that is effective in preventing decay of selected species of wood by selected fungi under optimum laboratory conditions.
The test method may be briefly summarized as follows: Conditioned blocks of wood are impregnated with solutions of a preservative in water or organic solvent to form one or more series of gradient retentions of the preservative in the blocks. After periods of weathering, the impregnated blocks are exposed to the wood-destroying fungus, Lenzites trabea (Madison strain 617). The minimum amount of preservative which protects the impregnated blocks against decay by the fungus is defined as the threshold retention for that organism. Failure to protect is evidenced by loss of wood from the treated wood blocks, as indicated by a loss in weight.
The threshold retention expressed in pounds of treating solution per cubic foot of wood represents the minimum amount of preservative necessary to protect wood from decay. […]

CCCCNC(=O)OCC#CI [Example 3-Iodo, 3-iodo-2-propynyl butyl carbamate]
Use Concentration: 0.27%
